Laboratory results from PubChem BioAssay AID2060489 (Molecular Pharmacology Branch, DTP, NCI, 2025).

Test system: 922993-354-T-J3-PDC complex spheroids, viability
Experiment: Anticancer human tumor 922993-354-T-J3-PDC patient-derived endometrial carcinoma cell line growth inhibition [GQUAD]
Settings: for IC50: curve of first compound; for viability, T/C: stronger effect = lower value
How it was run: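 Viability of tumor cells grown as complex spheroids with endothelial and stromal cells, exposed to drug combinations. Top concentration at or near clinical Cmax (else 10 microM), diluted in half-log increments.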

[1] = second compound 0.0316 µM, first compound 0.0316 µM
[2] = second compound 0.0316 µM, first compound 0.1 µM
[3] = second compound 0.0316 µM, first compound 0.316 µM
[4] = second compound 0.0316 µM, first compound 1 µM
[5] = second compound 0.0316 µM, first compound 3.16 µM
[6] = second compound 0.0316 µM, first compound 10 µM
[7] = second compound 0.1 µM, first compound 0.0316 µM
[8] = second compound 0.1 µM, first compound 0.1 µM
[9] = second compound 0.1 µM, first compound 0.316 µM
[10] = second compound 0.1 µM, first compound 1 µM
[11] = second compound 0.1 µM, first compound 3.16 µM
[12] = second compound 0.1 µM, first compound 10 µM
[13] = second compound 0.316 µM, first compound 0.0316 µM
[14] = second compound 0.316 µM, first compound 0.1 µM
[15] = second compound 0.316 µM, first compound 0.316 µM
[16] = second compound 0.316 µM, first compound 1 µM
[17] = second compound 0.316 µM, first compound 3.16 µM
[18] = second compound 0.316 µM, first compound 10 µM
[19] = second compound 1 µM, first compound 0.0316 µM
[20] = second compound 1 µM, first compound 0.1 µM
[21] = second compound 1 µM, first compound 0.316 µM
[22] = second compound 1 µM, first compound 1 µM
[23] = second compound 1 µM, first compound 3.16 µM
[24] = second compound 1 µM, first compound 10 µM
[25] = second compound 3.16 µM, first compound 0.0316 µM
[26] = second compound 3.16 µM, first compound 0.1 µM
[27] = second compound 3.16 µM, first compound 0.316 µM
[28] = second compound 3.16 µM, first compound 1 µM
[29] = second compound 3.16 µM, first compound 3.16 µM
[30] = second compound 3.16 µM, first compound 10 µM
[31] = second compound 10 µM, first compound 0.0316 µM
[32] = second compound 10 µM, first compound 0.1 µM
[33] = second compound 10 µM, first compound 0.316 µM
[34] = second compound 10 µM, first compound 1 µM
[35] = second compound 10 µM, first compound 3.16 µM
[36] = second compound 10 µM, first compound 10 µM
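Further: spheroids exposed to compounds for seven days.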
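Wherever viability, T/C is given: 100% = DMSO vehicle control viability.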

In the case of COc1ncnc(C2CC2)c1-c1ncc2cnn(Cc3ccc(-c4nc(C(F)(F)F)cn4C(C)C)cc3)c2n1 + Cc1[nH]c2ccc(F)cc2c1-c1nc2c3cccnc3c3ncccc3c2[nH]1, the IC50 (second compound 0.0316 µM) is reported as > 10 µM, the IC50 (second compound 0.1 µM) is reported as > 10 µM and the IC50 (second compound 0.316 µM) is reported as > 10 µM. For the same compound, the IC50 (second compound 1 µM) was > 10 µM, the IC50 (second compound 3.16 µM) was > 10 µM and the IC50 (second compound 10 µM) was > 10 µM. For the same compound, the viability, T/C [1] was 94.6%, the viability, T/C [2] was 87.3% and the viability, T/C [3] was 80.7%. For the same compound, the viability, T/C [4] was 82.3%, the viability, T/C [5] was 90.7% and the viability, T/C [6] was 88.8%. The viability, T/C [7] was 123%, the viability, T/C [8] was 99.2% and the viability, T/C [9] was 90.1%. It also gave a viability, T/C [10] of 70.1%, a viability, T/C [11] of 96.2% and a viability, T/C [12] of 93.2%. For the same compound, the viability, T/C [13] was 97.2%, the viability, T/C [14] was 111% and the viability, T/C [15] was 94.7%. The viability, T/C [16] was 92.2%, the viability, T/C [17] was 91.4% and the viability, T/C [18] was 79.8%. For the same compound, the viability, T/C [19] was 98.2%, the viability, T/C [20] was 86.6% and the viability, T/C [21] was 107%. The viability, T/C [22] was 88.2%, the viability, T/C [23] was 110% and the viability, T/C [24] was 95.1%. It also gave a viability, T/C [25] of 80.2%, a viability, T/C [26] of 116% and a viability, T/C [27] of 105%. For the same compound, the viability, T/C [28] was 124%, the viability, T/C [29] was 123% and the viability, T/C [30] was 90.6%. It also gave a viability, T/C [31] of 104%, a viability, T/C [32] of 103% and a viability, T/C [33] of 116%. It also gave a viability, T/C [34] of 92.3%, a viability, T/C [35] of 95.7% and a viability, T/C [36] of 97.6%.

C=CCn1c(=O)c2cnc(Nc3ccc(N4CCN(C)CC4)cc3)nc2n1-c1cccc(C(C)(C)O)n1 + CN(C)c1ccc(Nc2c3ccc(NC(=O)CCN4CCCC4)cc3nc3cc(NC(=O)CCN4CCCC4)ccc23)cc1 showed an IC50 (second compound 0.0316 µM) of 4.2 µM, an IC50 (second compound 0.1 µM) of 4.2 µM and an IC50 (second compound 0.316 µM) of 4.34 µM. For the same compound, the IC50 (second compound 1 µM) was 5.26 µM, the IC50 (second compound 3.16 µM) was 5.16 µM and the IC50 (second compound 10 µM) was 6.53 µM. The viability, T/C [1] was 103%, the viability, T/C [2] was 80.9% and the viability, T/C [3] was 87.4%. For the same compound, the viability, T/C [4] was 74.5%, the viability, T/C [5] was 67.7% and the viability, T/C [6] was 12.4%. It also gave a viability, T/C [7] of 95.3%, a viability, T/C [8] of 87.1% and a viability, T/C [9] of 88%. The viability, T/C [10] was 88.6%, the viability, T/C [11] was 61.8% and the viability, T/C [12] was 13.9%. The viability, T/C [13] was 93.6%, the viability, T/C [14] was 101% and the viability, T/C [15] was 73.2%. It also gave a viability, T/C [16] of 81.8%, a viability, T/C [17] of 65.6% and a viability, T/C [18] of 16.9%. The viability, T/C [19] was 110%, the viability, T/C [20] was 121% and the viability, T/C [21] was 95.3%. The viability, T/C [22] was 96.5%, the viability, T/C [23] was 79.1% and the viability, T/C [24] was 17%. For the same compound, the viability, T/C [25] was 100%, the viability, T/C [26] was 85.5% and the viability, T/C [27] was 113%. It also gave a viability, T/C [28] of 104%, a viability, T/C [29] of 74.6% and a viability, T/C [30] of 16.6%. It also gave a viability, T/C [31] of 111%, a viability, T/C [32] of 109% and a viability, T/C [33] of 108%. For the same compound, the viability, T/C [34] was 110%, the viability, T/C [35] was 87.2% and the viability, T/C [36] was 28.2%.

For Cc1cccc(N(C)C(=O)C2C(O)CCN2c2nc(C)cc(C(F)(F)F)c2C#N)c1 (stereo unspecified) + Cc1cnc(CNC(=O)c2c(=O)c3ccc(N4CCCN(C)CC4)nc3n3c2sc2ccccc23)cn1, the IC50 (second compound 0.0316 µM) was > 10 µM, the IC50 (second compound 0.1 µM) was 4.16 µM and the IC50 (second compound 0.316 µM) was < 0.0316 µM. The IC50 (second compound 1 µM) was > 10 µM, the IC50 (second compound 3.16 µM) was < 0.0316 µM and the IC50 (second compound 10 µM) was < 0.0316 µM. For the same compound, the viability, T/C [1] was 78%, the viability, T/C [2] was 87.2% and the viability, T/C [3] was 88%. It also gave a viability, T/C [4] of 77.9%, a viability, T/C [5] of 74.6% and a viability, T/C [6] of 68.6%. The viability, T/C [7] was 65.1%, the viability, T/C [8] was 62.4% and the viability, T/C [9] was 59%. The viability, T/C [10] was 52.9%, the viability, T/C [11] was 55.8% and the viability, T/C [12] was 43.9%. It also gave a viability, T/C [13] of 50.3%, a viability, T/C [14] of 42.7% and a viability, T/C [15] of 43.4%. The viability, T/C [16] was 53.7%, the viability, T/C [17] was 45.5% and the viability, T/C [18] was 47.1%. The viability, T/C [19] was 54.7%, the viability, T/C [20] was 59% and the viability, T/C [21] was 54.4%. For the same compound, the viability, T/C [22] was 46.1%, the viability, T/C [23] was 57.8% and the viability, T/C [24] was 53.5%. It also gave a viability, T/C [25] of 50.9%, a viability, T/C [26] of 44.4% and a viability, T/C [27] of 41.3%. For the same compound, the viability, T/C [28] was 46.1%, the viability, T/C [29] was 51.1% and the viability, T/C [30] was 44.6%. For the same compound, the viability, T/C [31] was 39.6%, the viability, T/C [32] was 48.5% and the viability, T/C [33] was 56.8%. For the same compound, the viability, T/C [34] was 39.1%, the viability, T/C [35] was 50.6% and the viability, T/C [36] was 41.4%.
